The values below are quoted from earlier work in article PMC9046186, “A distinctive ligand recognition mechanism by the human vasoactive intestinal polypeptide receptor 2” (Nature Communications, 2022).

One series deals with VIP2R. Particulars: introduction, Fig. 1a, b; no reference given.
The test system of a further series is VIP1R. Particulars: introduction, Fig. 1a, b; no reference given.

For Vasoactive intestinal peptide [VIP], the “affinity at VIP2R” value with VIP2R is given as “comparable affinity”. For the same substance, the “affinity at VIP1R” value with VIP1R is recorded as “comparable affinity”.

With “pituitary adenylate cyclase-activating polypeptide [PACAP38]”, the “affinity at VIP2R” value in the series with VIP2R was “comparable affinity”. Moreover, the “affinity at VIP1R” value with VIP1R is recorded as “comparable affinity”.
